Laboratory results reported in ChEMBL document CHEMBL1159136, “Dipeptide mimetics can substitute for the receptor activation domain resulting in highly potent analogues of hPTH(136)” (Bioorg Med Chem Lett, 1996).
Peptide text beside a SMILES is read from it. * marks the point of attachment. X2 = CC(C)[C@H](/C=C(\F)[C@H](C)N)C(=O)*; X3 = C/C(=C\[C@H](C(=O)*)C(C)C)[C@H](C)N

Key:
[1] = system: OK-1; test: Compound was evaluated for the accumulation of cyclic AMP in OK-1 cells.; type: functional, cell-based, opossum
[2] = system: OK-1; test: Compound was evaluated for the intrinsic activity for accumulation of cyclic AMP in OK-1 cells.; type: functional, opossum
[3] = system: OK-1; test: Displacement of [125I]-chick PTHrP-(1-36)-NH2 from opossum (OK-1) kidney cells; type: functional
[4] = system: SAOS-2; test: Compound was evaluated for the accumulation of cyclic AMP in SaOS-2 (human osteosarcoma) cells.; type: functional, cell-based
[5] = system: SAOS-2; test: Compound was evaluated for the intrinsic activity for accumulation of cyclic AMP in SaOS-2 (human osteosarcoma) cells.; type: functional
[6] = system: UMR106-06; test: Compound was evaluated for the intrinsic activity for accumulation of cyclic AMP in UMR10606 (rat osteosarcoma) cells.; type: functional
[7] = system: UMR106-06; test: Compound was evaluated for the accumulation of cyclic AMP in UMR10606 (rat osteosarcoma) cells.; type: functional, cell-based
[8] = system: OK-1; test: Accumulation of cyclic AMP in OK-1 cells.; type: functional, cell-based, opossum

| EC50 [1] [nM] | EC50 ([4]; Homo sapiens, SAOS-2) [nM] | EC50 ([7]; Rattus norvegicus, UMR106-06) [nM] | EC50 ([8]; opossum, OK-1) [nM] | EC50 ([8]; ok-1) [nM] | EC50 ([4]; saos-2) [nM] | EC50 ([7]; umr106-06) [nM] | Structure (SMILES) | Intrinsic activity [2] | pKD [3] | Intrinsic activity [5] | Intrinsic activity [6] |
| --- | --- | --- | --- | --- | --- | --- | --- | --- | --- | --- | --- |
|  | 1.5 | 1.6 | 4.4 |  |  |  | CC[C@H](C)[C@H](NC(=O)[C@H](CCC(=O)O)NC(=O)[C@H](CO)NC(=O)[C@@H](/C=C(\F)[C@H](C)N)C(C)C)C(=O)N[C@@H](CCC(N)=O)C(=O)N[C@@H](CC(C)C)C(=O)N[C@@H](CCSC)C(=O)N[C@@H](Cc1c[nH]cn1)C(=O)N[C@@H](CC(N)=O)C(=O)N[C@@H](CC(C)C)C(=O)NCC(=O)N[C@@H](CCCCN)C(=O)N[C@@H](Cc1c[nH]cn1)C(=O)N[C@@H](CC(C)C)C(=O)N[C@@H](CC(N)=O)C(=O)N[C@@H](CO)C(=O)N[C@@H](CCSC)C(=O)N[C@@H](CCC(=O)O)C(=O)N[C@@H](CCCN=C(N)N)C(=O)N[C@H](C(=O)N[C@@H](CCC(=O)O)C(=O)N[C@@H](Cc1c[nH]c2ccccc12)C(=O)N[C@@H](CC(C)C)C(=O)N[C@@H](CCCN=C(N)N)C(=O)N[C@@H](CCCCN)C(=O)N[C@@H](CCCCN)C(=O)N[C@@H](CC(C)C)C(=O)N[C@@H](CCC(N)=O)C(=O)N[C@@H](CC(=O)O)C(=O)N[C@H](C(=O)N[C@@H](Cc1c[nH]cn1)C(=O)N[C@@H](CC(N)=O)C(=O)N[C@@H](Cc1ccccc1)C(=O)N[C@H](C(=O)N[C@@H](C)C(N)=O)C(C)C)C(C)C)C(C)C (X2-SEIQLMHNLGKHLNSMERVEWLRKKLQDVHNFVA-NH2) | 1 | 8.9 | 0.89 | 1 |
|  | 1.1 | 1.2 | 4.4 |  |  |  | CC[C@H](C)[C@H](NC(=O)[C@H](CCC(=O)O)NC(=O)[C@H](CO)NC(=O)[C@@H](/C=C(\C)[C@H](C)N)C(C)C)C(=O)N[C@@H](CCC(N)=O)C(=O)N[C@@H](CC(C)C)C(=O)N[C@@H](CCSC)C(=O)N[C@@H](Cc1c[nH]cn1)C(=O)N[C@@H](CC(N)=O)C(=O)N[C@@H](CC(C)C)C(=O)NCC(=O)N[C@@H](CCCCN)C(=O)N[C@@H](Cc1c[nH]cn1)C(=O)N[C@@H](CC(C)C)C(=O)N[C@@H](CC(N)=O)C(=O)N[C@@H](CO)C(=O)N[C@@H](CCSC)C(=O)N[C@@H](CCC(=O)O)C(=O)N[C@@H](CCCN=C(N)N)C(=O)N[C@H](C(=O)N[C@@H](CCC(=O)O)C(=O)N[C@@H](Cc1c[nH]c2ccccc12)C(=O)N[C@@H](CC(C)C)C(=O)N[C@@H](CCCN=C(N)N)C(=O)N[C@@H](CCCCN)C(=O)N[C@@H](CCCCN)C(=O)N[C@@H](CC(C)C)C(=O)N[C@@H](CCC(N)=O)C(=O)N[C@@H](CC(=O)O)C(=O)N[C@H](C(=O)N[C@@H](Cc1c[nH]cn1)C(=O)N[C@@H](CC(N)=O)C(=O)N[C@@H](Cc1ccccc1)C(=O)N[C@H](C(=O)N[C@@H](C)C(N)=O)C(C)C)C(C)C)C(C)C (X3-SEIQLMHNLGKHLNSMERVEWLRKKLQDVHNFVA-NH2) | 1 | 9 | 1 | 1 |

The next lines start with the compound.

| Structure (SMILES) | EC50 [1] [nM] | EC50 ([4]; Homo sapiens, SAOS-2) [nM] | EC50 ([7]; Rattus norvegicus, UMR106-06) [nM] | EC50 ([8]; opossum, OK-1) [nM] | EC50 ([8]; ok-1) [nM] | EC50 ([4]; saos-2) [nM] | EC50 ([7]; umr106-06) [nM] | Intrinsic activity [2] | pKD [3] | Intrinsic activity [5] | Intrinsic activity [6] |
| --- | --- | --- | --- | --- | --- | --- | --- | --- | --- | --- | --- |
| CC[C@H](C)[C@H](NC(=O)[C@H](CCC(=O)O)NC(=O)[C@H](CO)NC(=O)[C@@H](NC(=O)[C@@H](N)CO)C(C)C)C(=O)N[C@@H](CCC(N)=O)C(=O)N[C@@H](CC(C)C)C(=O)N[C@@H](CCSC)C(=O)N[C@@H](Cc1c[nH]cn1)C(=O)N[C@@H](CC(N)=O)C(=O)N[C@@H](CC(C)C)C(=O)NCC(=O)N[C@@H](CCCCN)C(=O)N[C@@H](Cc1c[nH]cn1)C(=O)N[C@@H](CC(C)C)C(=O)N[C@@H](CC(N)=O)C(=O)N[C@@H](CO)C(=O)N[C@@H](CCSC)C(=O)N[C@@H](CCC(=O)O)C(=O)N[C@@H](CCCN=C(N)N)C(=O)N[C@H](C(=O)N[C@@H](CCC(=O)O)C(=O)N[C@@H](Cc1c[nH]c2ccccc12)C(=O)N[C@@H](CC(C)C)C(=O)N[C@@H](CCCN=C(N)N)C(=O)N[C@@H](CCCCN)C(=O)N[C@@H](CCCCN)C(=O)N[C@@H](CC(C)C)C(=O)N[C@@H](CCC(N)=O)C(=O)N[C@@H](CC(=O)O)C(=O)N[C@H](C(=O)N[C@@H](Cc1c[nH]cn1)C(=O)N[C@@H](CC(N)=O)C(=O)N[C@@H](Cc1ccccc1)C(=O)N[C@H](C(=O)N[C@@H](C)C(N)=O)C(C)C)C(C)C)C(C)C | 4.2 | 2.3 | 3.3 |  |  |  |  | 1 | 8.6 | 0.96 | 0.98 |
| CC[C@H](C)[C@H](NC(=O)[C@H](CCC(=O)O)NC(=O)[C@H](CO)NC(=O)[C@@H](NC(=O)[C@H](C)N)C(C)C)C(=O)N[C@@H](CCC(N)=O)C(=O)N[C@@H](CC(C)C)C(=O)N[C@@H](CCSC)C(=O)N[C@@H](Cc1c[nH]cn1)C(=O)N[C@@H](CC(N)=O)C(=O)N[C@@H](CC(C)C)C(=O)NCC(=O)N[C@@H](CCCCN)C(=O)N[C@@H](Cc1c[nH]cn1)C(=O)N[C@@H](CC(C)C)C(=O)N[C@@H](CC(N)=O)C(=O)N[C@@H](CO)C(=O)N[C@@H](CCSC)C(=O)N[C@@H](CCC(=O)O)C(=O)N[C@@H](CCCN=C(N)N)C(=O)N[C@H](C(=O)N[C@@H](CCC(=O)O)C(=O)N[C@@H](Cc1c[nH]c2ccccc12)C(=O)N[C@@H](CC(C)C)C(=O)N[C@@H](CCCN=C(N)N)C(=O)N[C@@H](CCCCN)C(=O)N[C@@H](CCCCN)C(=O)N[C@@H](CC(C)C)C(=O)N[C@@H](CCC(N)=O)C(=O)N[C@@H](CC(=O)O)C(=O)N[C@H](C(=O)N[C@@H](Cc1c[nH]cn1)C(=O)N[C@@H](CC(N)=O)C(=O)N[C@@H](Cc1ccccc1)C(=O)N[C@H](C(=O)N[C@@H](C)C(N)=O)C(C)C)C(C)C)C(C)C (stereo in doubt; form 1) |  |  |  |  | 5.9 | 3 | 3.3 | 1 | 8.4 | 0.95 | 1 |
| CC[C@H](C)[C@H](NC(=O)[C@H](CCC(=O)O)NC(=O)[C@H](CO)NC(=O)[C@@H](NC(=O)[C@H](C)N)C(C)C)C(=O)N[C@@H](CCC(N)=O)C(=O)N[C@@H](CC(C)C)C(=O)N[C@@H](CCSC)C(=O)N[C@@H](Cc1c[nH]cn1)C(=O)N[C@@H](CC(N)=O)C(=O)N[C@@H](CC(C)C)C(=O)NCC(=O)N[C@@H](CCCCN)C(=O)N[C@@H](Cc1c[nH]cn1)C(=O)N[C@@H](CC(C)C)C(=O)N[C@@H](CC(N)=O)C(=O)N[C@@H](CO)C(=O)N[C@@H](CCSC)C(=O)N[C@@H](CCC(=O)O)C(=O)N[C@@H](CCCN=C(N)N)C(=O)N[C@H](C(=O)N[C@@H](CCC(=O)O)C(=O)N[C@@H](Cc1c[nH]c2ccccc12)C(=O)N[C@@H](CC(C)C)C(=O)N[C@@H](CCCN=C(N)N)C(=O)N[C@@H](CCCCN)C(=O)N[C@@H](CCCCN)C(=O)N[C@@H](CC(C)C)C(=O)N[C@@H](CCC(N)=O)C(=O)N[C@@H](CC(=O)O)C(=O)N[C@H](C(=O)N[C@@H](Cc1c[nH]cn1)C(=O)N[C@@H](CC(N)=O)C(=O)N[C@@H](Cc1ccccc1)C(=O)N[C@H](C(=O)N[C@@H](C)C(N)=O)C(C)C)C(C)C)C(C)C (stereo in doubt; form 2) |  | 2.4 |  | 7 |  |  | 1 | 1 | 8.1 | 1 | 0.95 |
